# Measurements from patent publication US5876715A, “Antibodies that bind novel carbohydrate ligands (myelorollins) that cause E-selectin dependent cell rolling, and uses thereof” (The Biomembrane Institute, priority 1996, dated 1999).
# “Also recorded” adds a separate entry of the source.
# Test system: E-selectin-expressing CHO cells
# Assay: Rolling and adhesion of E-selectin-expressing CHO cells on ganglioside-coated beads under dynamic flow (parallel plate laminar flow chamber)
# Format: cell-based, Chinese hamster
# Conditions: for rolling and adhesion of E-selectin-expressing CHO cells / adhesion of E-selectin-expressing CHO cells / rolling of E-selectin-expressing CHO cells: dynamic flow conditions, shear stress 0.6-12 dynes/cm^2; for rolling and adhesion of E-selectin-expressing CHO cells at 100 ng ganglioside: 100 ng of single fraction or mixture of 50 ng each, 1 μm beads, 4.8 and 2.4 dynes/cm^2 (FIG. 3A); for rolling and adhesion of E-selectin-expressing CHO cells at low ganglioside quantity: 0.05-0.1 ng ganglioside per spot (mixture 0.05 ng each), 1 μm beads (FIGS. 3B, 4A, 4B)
# Source text: FIGS. 2A-2E show rolling and adhesion of E-selectin-expressing CHO cells to polystyrene beads coated with various gangliosides under dynamic flow conditions. Various poly-LacNac gangliosides were quantitatively adsorbed on beads affixed to glass microscope slides as described in the Materials & Methods section in the EXAMPLE. These polystyrene beads affixed on galss plates are resistant to dynamic flow. GSL coated on beads are therefore very stable in dynamic flow. Slides were blocked by placing 2% BSA in PBS at room temp for 1 hr, and assembled in a parallel-plate laminar-flow chamber. E-selectin-expressing CHO cells were freshly harvested and suspended in RPMI medium (1×10^5 cells/mL). The cell suspensions were placed in an infusion pump connected to the flow chamber, and infused into the assembly at various laminar flow rates. Cell movements were observed under phase-contrast microscope and recorded by videocassette recorder. Numbers of rolling cells (.smallcircle.) and adherent (nonrolling) cells (.circle-solid.), in at least 10 microscope fields, at four different shear stresses (dynes/cm^2; see abscissa), were plotted.
# Polystyrene latex beads ([…] or 1 μm) used as carriers of GSLs as above were suspended in ethanol. 1 μL aliquots of suspension were placed on precleaned and specially treated microscope slides (Labcraft Superfrost® Plus, Curtin Matheson Scientific, Houston, Tex.). Beads were distributed homogeneously on the glass surface within a circular spot with diameter about 1 cm. Slides were heated at 150° C. for 50 sec, which caused the beads to adhere strongly to the surface such that they could not be washed off by water stream at various velocities. Gangliosides dissolved in IHW at the same molar concentration were applied to latex beads affixed on the slides; namely, 1 μL aliquots containing 50-100 or 0.05-0.1 ng ganglioside were placed on the center of a circular spot. The ganglioside thus became affixed to the bead surface.
# Slides prepared as above, as they are or after treatment consisted of incubating said slides for at least an hour at room temperature with 3% BSA prewarmed at 37° C. and washing with PBS containing CA^2+ /Mg^2+ (i.e., PBS(+)) were placed in a parallel plate laminar flow chamber connected to an infusion pump (model 935, Harvard Apparatus, Cambridge, Mass.). The assembly, originally described by Lawrence et al. (Lawrence et al., 1990, Blood 75:227-237; Lawrence and Springer, 1991, Cell 65:859-873), simulates the flow shear stress present in physiological microvascular environments. A laminar flow with defined rate and wall shear stress is achieved by manipulation of the infusion pump, which is connected to the inlet of the flow chamber. A suspension of E- or P-selectin-expressing CHO cells (1×10^5 /mL in FIGS. 2A-2E, 2×10^5/ cells mL in FIG. 3A, 5×10^5 /cells mL in FIGS. 3B, 4A and 4B), freshly harvested from culture with EDTA, washed, and resuspended in 1% FCS-RPMI medium, was infused into the assembly at various laminar flow rates. Cell movements were observed under inverted phase-contrast microscope (Diaphot-TMD, Nikon) and recorded by time-lapse videocassette recorder. Cell rolling and adhesion were observed, and numbers of rolling and adherent cells during a 2 min period at shear stresses, from 0.6-12.0 dynes/cm^2 were counted from at least 10 fields on videotape. Wall shear stress (T) was calculated by the equation of Lawrence et al. (Lawrence et al., 1990 Blood 75:227-237; Lawrence et al., 1987, Blood 70: 1284-1290): T=3 μQ/2ba^2, where μ=coefficient of viscosity (1.0 cP), Q=volumetric flow rate (cm^3 /sec), a=half channel height (in this case, 5.7×10^-3 cm), and b=channel width (1.3 cm).
# 10, 13-1, and 14 (containing Str. 4-5, Str. 7-8, and Str. 9-12 in Table 1, respectively). […] 10 and 14, which have myelorollin structure and lack SLe^x epitope (FIG. 4). Polystyrene beads were affixed to glass microscope slides. Various gangliosides were coated as described in Materials & Methods. […]
Substance,rolling and adhesion of E-selectin-expressing CHO cells,rolling and adhesion of E-selectin-expressing CHO cells at 100 ng ganglioside (dynamic flow),rolling and adhesion of E-selectin-expressing CHO cells at low ganglioside quantity (dynamic flow),adhesion of E-selectin-expressing CHO cells,rolling of E-selectin-expressing CHO cells,also measured
VIII^3 NeuAcIII^3 FucnLc8 Cer [Fr. 10-2],strong rolling and adhesion,comparable rolling and Vadhesion; also recorded: comparable to each other; also recorded: comparable adhesion,still produced marked rolling and adhesion,–,–,"rolling and adhesion of E-selectin-expressing CHO cells at 100 ng ganglioside (dynamic flow, listed as 10-2): comparable; rolling and adhesion of E-selectin-expressing CHO cells at low ganglioside quantity (dynamic flow, listed as 10-2): still produced marked rolling/adhesion"
VIII^3 NeuAcV^3 FucnLc8 Cer [Fr. 10-1],strong rolling and adhesion,comparable rolling and Vadhesion; also recorded: comparable to each other; also recorded: comparable adhesion,did not,–,–,"rolling and adhesion of E-selectin-expressing CHO cells at 100 ng ganglioside (dynamic flow, listed as 10-1): comparable"
"VI^3 NeuAcV^3 FucIII^3 FucnLc6 Cer [SLe^x -Le^x, reference compound]",weaker than myelorollin structures; also recorded: weaker than myeloglycan or myelorollin structures,–,no rolling or adhesion; also recorded: no rolling and adhesion observed; also recorded: essentially no cell rolling and adhesion; also recorded: did not cause any E-selectin-dependent cell rolling or adhesion,"Low level of adhesion without rolling; also recorded: adherent, but not rolling; also recorded: significantly lower than for Fr. 13-1 or 14; also recorded: only weak adhesion compared to Fr. 10-1, 10-2, 13-1 and 14; also recorded: relatively weak adhesion compared to Fr. 10-1, 10-2, 13-1, and 14",not observed (or barely observed); also recorded: No rolling was observed,"adhesion of E-selectin-expressing CHO cells (listed as Str. 3): did produce cell adhesion, but to a lesser extent than the myelorollin fractions; also recorded: lower level of adhesion; rolling of E-selectin-expressing CHO cells (listed as Str. 3): no cell rolling; rolling of E-selectin-expressing CHO cells (listed as sialyl Le^x -Le^x): No rolling was observed; rolling number (dynamic flow, 4 μm beads, every field at all shear stresses (FIG. 2A)): 0; number of cells adhered without rolling (dynamic flow, shear stresses 12 to 1.2 dynes/cm^2 (FIG. 6A)): less than 5 /field"
VI^3 NeuAcnLc6 Cer [Fr. 7],–,–,–,no cell adhesion,–,–
X^3 NeuAcVII^3 FucV^3 FucnLc10 Cer [Fr. 13-1],–,–,–,–,more frequent at 4.8 and 2.4 than at 1.2 dynes/cm^2; also recorded: caused strong rolling,"shear stress at which plain rolling and rolling followed by adhesion was maximal / most clearly observed (dynamic flow, 12, 4.8, 2.4, 1.2 and 0.6 dynes/cm^2 (FIGS. 6A-6D)): 2.4 dynes/cm^2; shear stress at which rolling (rolling/adhesion) was highest (dynamic flow, ganglioside on 1 μm beads (FIGS. 2D, 2E)): 4.8 dynes/cm^2"
X^3 NeuAcVII^3 FucnLc10 Cer [Fr. 12-2],"lower than for Frs. 13-1 and 14 (FIGS. 2C and 2E), but comparable to SLe^x -Le^x; also recorded: lower than for Fr. 13-1 and 14 (FIG. 2C and FIG. 2E), but comparable to SLe^x -Le^x",–,–,–,–,"Number of E-selectin expressing cells adhered on myelorollin under dynamic flow, column 5 (0.6-1.2 dynes/cm^2, column head 5 (not explained)): 5 (±2); Number of E-selectin expressing cells adhered on myelorollin under dynamic flow, column 10 (0.6-1.2 dynes/cm^2, column head 10 (not explained)): 3 (±1); shear stress at which rolling was highest (dynamic flow, ganglioside on 4 μm beads (FIG. 2B)): 4.8 dynes/cm^2"
